In article PMC11359197 (Viruses, 2024):

Target: released M^pro-GST (Severe acute respiratory syndrome coronavirus 2, UniProt P0DTD1, Q3569E)
Format: cell-based, SARS-CoV-2

| Structure (SMILES) | GFP signal (GFP degradation by the released M^pro-GST) | GFP signal versus DMSO controls, pilot screen |
| --- | --- | --- |
| Cc1cccc(C)c1OCC(=O)N[C@@H](Cc1ccccc1)[C@@H](O)C[C@H](Cc1ccccc1)NC(=O)[C@H](C(C)C)N1CCCNC1=O [lopinavir] | background levels |  |
| CC(C)(C)NC(=O)N[C@H](C(=O)N1C[C@H]2[C@@H]([C@H]1C(=O)NC(CC1CCC1)C(=O)C(N)=O)C2(C)C)C(C)(C)C (some centres unmarked) [boceprevir, Boceprevir] | consistently suppressed the GFP degradation | higher GFP signals |
| CC(C)C[C@H](NC(=O)[C@H]1O[C@@H]1C(=O)O)C(=O)NCCCCN=C(N)N [E-64] | background levels |  |
| CC(NC(=O)[C@H](Cc1ccccc1)NC(=O)OCc1ccccc1)C(=O)CF (some centres unmarked) [Z-FA-FMK] | consistently suppressed the GFP degradation | higher GFP signals |
| CC(C)[C@H](O)C(=O)N[C@@H](C)C(=O)N[C@@H]1C(=O)N(C)CCc2ccccc21 [LY450139] |  | higher GFP signals |
| COC(=O)N[C@H](C(=O)N[C@@H](Cc1ccccc1)[C@@H](O)CN(Cc1ccc(-c2ccccn2)cc1)NC(=O)[C@@H](NC(=O)OC)C(C)(C)C)C(C)(C)C [atazanavir] | background levels |  |
